Entries after “also recorded” stand apart in the source; their conditions may differ. Read-outs that look alike come from different tables or passages of the source.
Tests used:
[1] = test system: glutathione; conditions: topical, extract containing 1 μmol sulforaphane, skin 24 h later, vs vehicle
Source text: (§1) The phase 2 response was next evaluated in vivo in […] hairless mice. Female SKH-1 hairless mice (4 weeks old) were obtained from Charles River Breeding Laboratories (Wilmington, Mass.) and were acclimatized in our animal facility for 2 weeks before the start of the experiment. The animals were kept on a 12-h light/12-h dark cycle, 35% humidity, and given free access to water and pelleted AIN 76A diet (Harlan TekLad, free of inducers). All animal experiments were in compliance with the National Institutes of Health Guidelines and were approved by the Johns Hopkins University Animal Care and Use Committee.
(§2) Seven-week-old SKH-1 hairless mice (5 per group) were treated topically on their backs with either 100 μl of a standardized myrosinase-hydrolyzed broccoli sprout extract containing 1 μmol of sulforaphane, or vehicle (100 μl of 80% acetone:20% water, v/v). The animals were euthanized 24 h later and their dorsal skins were dissected using a rectangular template (2.5×5 cm) and frozen in liquid N2. Skin samples were pulverized in liquid N2 and 100 mg of the resulting powder was homogenized in 1 ml of either 0.25 M sucrose buffered with 10 mM Tris-HCl, pH 7.4, for analysis of NQO1 enzymatic activity and protein content, or ice-cold metaphosphoric acid (50 g/liter) in 2 mM EDTA for analysis of glutathione. […]

[2] = test system: NQO1; conditions: topical, extract containing 1 μmol sulforaphane, skin 24 h later, vs vehicle
Source text: as §1, §2

[3] = in vivo; cited from earlier work
[4] = test system: iNOS; conditions: IFN-γ 10 ng/ml or LPS 3 ng/ml overnight
Experimental: (§3) Cells were treated with various concentrations of sulforaphane and either IFNγ (10 ng/ml) or lipopolysaccharide (LPS; 3 ng/ml) for 24 h. NO in the medium was measured as nitrite by the Griess reaction (A), and iNOS induction was detected by Northern (B) and Western (C) blotting.
RAW 264.7 macrophages (2×10^6 cells/well) were incubated with sulforaphane and either 10 ng/ml of IFN-γ or 3 ng/ml of LPS overnight. For Northern blots, total RNA was isolated with Trizol reagent (Invitrogen) and prepared for blotting as previously described (33). Probes for iNOS and GAPDH were radiolabeled with […] with random primers. For Western blots, total cell lysates were subjected to SDS/PAGE, transferred to a membrane, and probed with iNOS and β-actin antibodies (Santa Cruz Biotechnology).

[5] = test system: UVB-pretreated high-risk mice; experiment: UVB radiation-induced skin carcinogenesis in high-risk mice, dietary administration; type: in vivo; conditions: for reduction of tumor multiplicity (number of tumors per mouse): diet; for reduction of tumor multiplicity (number of tumors per mouse) / reduction of tumor incidence (percent animals with tumors): 13 weeks; for number of tumors per mouse: control 4.3
Experimental: Seeds of broccoli (Brassica oleracea italica, cv. DeCicco) were used to grow sprouts as described in Example 1. Growth was arrested after 3 days by plunging sprouts into boiling water and allowed to boil for ˜30 min. This treatment inactivated the endogenous sprout myrosinase and extracted the glucosinolates. […] The powder was mixed with the mouse diet (powdered AIN 76A) to give the equivalent of 10 μmol (low dose) or 50 μmol (high dose) of glucoraphanin per 3 grams of diet.
Body weights and formation of tumors larger than 1 mm in diameter were determined weekly.
UVB radiation was provided by a bank of UV lamps (FS72T12-UVB-HO, National Biological Corporation, Twinsburg, Ohio) emitting UVB (280-320 nm, 65% of total energy) and UVA (320-375 nm, 35% of total energy). The radiant dose of UVB was quantified with a UVB Daavlin Flex Control Integrating Dosimeter and further calibrated with an IL-1400 radiometer (International Light, Newburyport, Mass.).
The animals were irradiated for 20 weeks on Tuesdays and Fridays with a radiant exposure of 30 mJ/cm^2/session. One week later, the mice were divided into three groups: 30 animals in each treatment group and 30 animals in the control group. The mice in the two treatment groups received a diet into which was incorporated a freeze-dried broccoli sprout extract powder. The diet of the low dose treatment group included a freeze-dried broccoli sprout extract powder equivalent to 10 μmol/day glucoraphanin, while the diet of the high dose treatment group included a freeze-dried broccoli sprout extract powder equivalent to 50 μmol/day glucoraphanin. […] The mice were fed this diet for 13 weeks.
Tumor volumes were determined by measuring the height, length, and width of each mass that was larger than 1 mm in diameter. The average of the three measurements was used as the diameter and the volume was calculated (v=4πr^3/3). All mice were euthanized on the same day and the size and multiplicity of tumors was determined. Dorsal skins were dissected using a rectangular template (2.5×5 cm) to include the entire treated areas of the mice. Skins were stapled to cardboard, photographed, and fixed in ice-cold 10% phosphate-buffered formalin at 4° C. for 24 h.
Tumor incidence was evaluated using the Kaplan-Meier survival analysis followed by both a stratified log-rank test and a Wilcoxon test, for equality of survivor functions. Tumor multiplicity was evaluated by ANOVA and comparisons were made on all treatments and on individual, paired treatments (t-test). Tumor volume was evaluated by ANOVA with treatment time as a nested variable. These calculations were performed using Stata 7.0 (College Station, Tex.). Other statistics were calculated using Excel.

[6] = test system: RAW 264.7 cells; experiment: cells; conditions: Mus musculus, RAW264.7, 24 h, read-out: IC50, inhibition of NO formation
Experimental: as §3

[7] = test system: glutathione; conditions: 24 h exposure, serial dilutions
Experimental: (§4) Cells (20,000 per well) were plated on 96-well plates and exposed to a series of concentrations of sulforaphane. GSH and NQO1 levels were measured in cell lysates after 24 h and 48 h, respectively. Each data point represents the average of the measurements from 8 different wells.
(§5) HaCaT human keratinocytes (a gift from G. Tim Bowden, Arizona Cancer Center, Tucson) were cultured in Dulbecco's modified Eagle's medium (DMEM) supplemented with 5% FBS; and PE murine keratinocytes (a gift from Stuart H. Yuspa, National Cancer Institute, Bethesda, Md.) were cultured in Eagle's minimum essential medium (EMEM) with 8% FBS, treated with Chelex resin (Bio-Rad) to remove Ca^2+.
(§6) Cells (20,000 per well) were grown for 24 h in 96-well plates, then exposed to serial dilutions of sulforaphane for either 24 h (for glutathione determination) or 48 h (for NQO1 determination), and finally lysed in 0.08% digitonin. An aliquot (25 μl) was used for protein analysis. Activity of NQO1 was determined by the Prochaska test (29,30). To measure the intracellular glutathione levels, 25 μl of cell lysate received 50 μl of ice-cold metaphosphoric acid (50 g/liter) in 2 mM EDTA to precipitate cellular protein. After 10 min at 4° C., plates were centrifuged at 1,500 g for 15 min and 50 μl of the resulting supernatant fractions were transferred to a parallel plate. To each of these wells, 50 μl of 200 mM sodium phosphate buffer, pH 7.5, containing 10 mM EDTA, were added and total cellular glutathione was determined by rate measurements in a recycling assay (31,32).

[8] = test system: quinone reductase (NQO1); conditions: 48 h exposure; for intracellular level of NQO1: serial dilutions
Experimental: as §4, §5, §6

[9] = test system: HaCaT cells; conditions: HaCaT cells at concentrations giving >10-fold NQO1 induction
[10] = test system: NQO1; experiment: Skin NQO1 specific activity after 311-nm UV radiation; type: in vivo, SKH-1 hairless mice; conditions: three topical doses at 24-h intervals, 700 mJ/cm^2 311-nm UV 24 h after last dose
Experimental: (§7) The backs of SKH-1 hairless mice were treated topically with three doses at 24-h intervals of: (i) broccoli sprout extract containing 0.5 μmol of sulforaphane in 50 μl of 80% acetone/20% water (vol/vol) applied to the caudal area, and (ii) solvent applied to the rostral area. The animals received 700 mJ/cm^2 of 311-nm UV radiation 24 h after the last dose and were euthanized 24 h later, and their dorsal skin was harvested. (A) Fresh frozen 9-μm-thick sections of skin were fixed with paraformaldehyde and stained with H&E. (Scale bar 100 μm). (B) Mice were irradiated with a range of doses of UV radiation and euthanized 24 h later. (C) MPO-specific activity was measured in supernatant fractions of total homogenates prepared from liquid nitrogen-frozen and pulverized dorsal skin, and its protein levels were detected by Western blots with anti-MPO antibody (Hycult Biotechnology, Uden, The Netherlands). […] (D and E) MPO-specific (D) and NQO1-specific (E) activities were measured in supernatant fractions of total skin homogenates from mice treated with solvent (black bars), sulforaphane (gray bars), and broccoli sprout extract (white bars) and are expressed as ratios of each treatment to the non-irradiated control. Average values±SD are shown. Eight animals were used in the control group, and four in each of the treatment groups.

[11] = test system: myeloperoxidase (MPO); experiment: Skin myeloperoxidase (MPO) after 311-nm UV radiation; type: in vivo, SKH-1 hairless mice; conditions: three topical doses at 24-h intervals, 700 mJ/cm^2 311-nm UV 24 h after last dose
Experimental: as §7

[12] = test system: PE murine keratinocytes; conditions: 5 μM for 24 h, UVA 10 J/cm^2, PE cells
Experimental: Cells (50,000 per well) were plated on 24-well plates, treated with 5 μM sulforaphane for 24 h, washed with DPBS, and then exposed to UVA (10 J/cm^2). Reactive oxygen intermediates generated by the UV radiation were quantified by the fluorescent probe 2′,7′-dichlorodinitrofluorescein and fluorescence intensity was measured (expressed as a ratio of exposed to non-exposed cells).
PE cells (50,000 per well) were seeded into 24-well plates and grown for 48 h. The cells were then exposed to 1 μM or 5 μM sulforaphane for 24 h. On the day of the experiments, after removing the medium, the cells were incubated with 100 μM 2′,7′-dichlorodinitrofluorescein diacetate in 500 μl of fresh medium (Molecular Probes, Eugene, Oreg.) for 30 min. The medium containing the fluorescent probe was then removed, the cells were washed with DPBS, and exposed to UVA radiation (10 J/cm^2). Control cells were kept in the dark. Cells were detached with trypsin, suspended in 2.0 ml of DPBS, and the intensity of fluorescence was determined in cell suspensions at 520 nm with an excitation of 485 nm in 2-ml cuvettes in a Perkin-Elmer LS50 spectrofluorimeter.

[13] = Plasma levels of sulforaphane and its metabolites after chronic dietary treatment; type: in vivo, mice
Source text: These levels are adequate to expect biological effects.

[14] = mice, dietary; cited from earlier work

## C[S+]([O-])CCCCN=C=S (stereo not shown) [sulforaphane, 4-methylsulfinylbutyl isothiocyanate]
[1]
  elevation of the total glutathione levels: ~15%
[2]
  induction of NQO1: ~50%
[3]
  tissue half-life: 1 to 2 h
[4]; Northern blot
  synthesis of iNOS mRNA: inhibited
[4]; Western blot
  synthesis of iNOS protein: inhibited
[5]; high dose 50 μmol/day
  reduction of tumor multiplicity (number of tumors per mouse): 72%
[5]; low dose 10 μmol/day
  reduction of tumor multiplicity (number of tumors per mouse): 47%
[6]
  IC50: 300 nM
[7]; HaCaT human keratinocytes
  intracellular level of glutathione: increased in a dose-dependent manner
[7]; PE murine keratinocytes
  intracellular level of glutathione: increased in a dose-dependent manner
[8]; HaCaT cells
  magnitude of NQO1 induction: > 10 fold
[8]; HaCaT human keratinocytes
  intracellular level of NQO1: increased in a dose-dependent manner
[8]; PE murine keratinocytes
  intracellular level of NQO1: increased in a dose-dependent manner
[9]
  cytotoxicity: without any apparent evidence of cytotoxicity
[10]
  NQO1 specific activity in skin homogenates: increased the specific activities; also recorded: restoration of the UV radiation decreased NQO1 levels
[11]
  UV radiation-induced MPO protein and enzyme activity: suppressed the increases of MPO protein and enzyme activity levels; also recorded: equivalent protection against the UV radiation-induced MPO elevation
[12]
  reduction in reactive oxygen intermediates generated by the UV radiation: 50%

## C[S+]([O-])CCCC/C(=N\OS(=O)(=O)O)S[C@@H]1O[C@H](CO)[C@@H](O)[C@H](O)[C@H]1O (stereo partly shown) [glucoraphanin]
[13]; high dose 50 μmol/day glucoraphanin
  plasma levels of sulforaphane and its metabolites: 2500 nM
[13]; low dose 10 μmol/day glucoraphanin
  plasma levels of sulforaphane and its metabolites: 2200 nM
[14]
  fraction converted to sulforaphane upon ingestion: about 10%
[5]; high dose 50 μmol/day
  inhibition in the total tumor volume per mouse: 70%
  reduction of tumor multiplicity (number of tumors per mouse): 72%
  number of tumors per mouse: 1.2
[5]; high dose 50 μmol/day glucoraphanin as freeze-dried broccoli sprout extract powder in diet
  reduction of tumor incidence (percent animals with tumors): 35%
[5]; low dose 10 μmol/day
  inhibition in the total tumor volume per mouse: 70%
  reduction of tumor multiplicity (number of tumors per mouse): 47%
  number of tumors per mouse: 2.3
[5]; low dose 10 μmol/day glucoraphanin as freeze-dried broccoli sprout extract powder in diet
  reduction of tumor incidence (percent animals with tumors): 25%

Source: patent US20110014137A1, “METHODS FOR PROTECTING THE SKIN FROM RADIATION INSULTS” (priority 2007, published 2011)
